In patent US8466104B2, “Therapeutically active alpha MSH analogues” (AbbVie Inc., priority 2005, dated 2013):
Values joined by “and” are separate entries in the source; they are usually repeats but may differ in a detail not shown here. Equal values may be shown once. “Also recorded” adds a separate entry of the source. Read-outs that look alike come from different tables or passages of the source.

What was measured:
[1] = system: LPS induced TNF-α in plasma; assay: Inhibition of LPS induced TNFa production in rats in vivo (experimental setup 2); set-up: species or system rat; conditions: for inhibitory effect on plasma TNF-a compared to native a-MSH / TNF-a concentration in plasma, % of the maximal response (LPS-Vehicle) / dose at which the maximal inhibitory effect on TNF-a is achieved: iv LPS infusion; for TNF-a concentration in plasma, % of the maximal response (LPS-Vehicle): 200 μg/kg body weight iv, 120 minutes after initiation of LPS infusion; for dose at which the maximal inhibitory effect on TNF-a is achieved: doses 50, 200, 1000 μg/kg tested
Procedure: Inhibition of LPS Induced TNFa Production in Rats In Vivo
Experimental animals. Female Wistar rats (220-240 g) are obtained from the Charles River, Sulzfeld, Germany, and housed in a temperature- (22-24° C.) and moisture-controlled (40-70%) room with a 12 h light-dark cycle (light on from 6:00 A.M. to 6:00 P.M.). The rats are maintained on a standard rodent diet with 140 mmol/kg of sodium, 275 mmol/kg potassium and 23% protein (Altromin International, Lage, Germany) and have free access to water.
Animal preparation. […] After instrumentation, the animals are housed individually for 7-10 days until the day of the experiment.
Experimental protocol. Prior to the experiments all rats are adapted to the restraining cage used for the experiments by training them for two periods of two hours each. On the day of the experiment, the animal is transferred to a restraining cage, and an intravenous infusion of vehicle solution containing 150 mM glucose is started. The infusion rate is 0.5 ml/h throughout the experiment. After a short adaptation period, infusion of lipopolysaccharide (LPS) is started. LPS (E coli serotype 0127 B8, L 3129, Sigma, St. Louis, USA) is given at a dose of 4 mg/kg body weight delivered as an i.v. infusion over 1 hour. Arterial blood samples of 0.3 ml are taken 60, 90, and 120 minutes after start of the LPS infusion and replaced immediately with heparinized blood from a normal donor rat.
In addition to LPS infusion all rats are treated with a bolus injection of: • Vehicle (0.5 mL isotonic saline); • a-MSH in one of the following doses: 50 μg/kg bw; 200 μg/kg/bw or 1000 μg/kg bw; • Test compound in one of the following doses: 50 μg/kg bw; 200 μg/kg/bw or 1000 μg/kg bw.
Measurement of TNF-α in plasma: The blood samples are collected in a prechilled test tube with 0.5 mM EDTA, pH 7.4, and 20×10^6 IU/ml aprotinin. After centrifugation at 4° C., plasma samples are transferred to pre-chilled test tubes and stored at −20° C. for later measurements of TNF-α. TNF-α in plasma is determined by an ELISA (Biotrak, Amersham, UK).
Statistical analyses. Results are presented as means±SE. A two-way ANOVA for repeated measures is used to test for differences between groups. In case of P<0.05, the differences between corresponding periods are evaluated by unpaired t-tests with Bonferroni's correction of the level of significance.

[2] = system: cisplatin induced renal failure in rats; assay: Inhibition of cisplatin induced renal failure (experimental setup 7); format: in vivo, rat; conditions: for effect on cisplatin induced fall in GFR / effect on cisplatin induced hypomagnesemia: rats treated with cisplatin; for Plasma Mg: rats treated with cisplatin 5.0 mg/kg ip, 200 μg/kg iv test compound
Procedure: Inhibition of Cisplatin Induced Renal Failure
Rats, which previously have been instrumented with a chronic venous catheter, are placed in metabolic cages and after a period of acclimation to the metabolic cages the rats are treated with an intreperitoneal cisplatin injection 5.0 mg/kg bw in 0.5 ml 150 mM NaCl or vehicle (0.5 ml 150 mM NaCl). Five days later the rats are then returned to metabolic cages, and daily 24 h urine output and water intake are measured and collected for the next five days. All rats are then anesthetized in halothan/N2O and an arterial blood sample collected in prechilled EDTA coated vials. The blood samples are collected in a prechilled test tube with 0.5 mM EDTA, pH 7.4, and 20×10^6 IU/ml aprotinin. After centrifugation at 4° C., plasma samples are transferred to pre-chilled test tubes and stored at −20° C. for later measurements of creatinine and Magnesium (Mg). In addition to this creatinine is also measured in the urine collected in the last 24 hours period prior to the blood collection. […] Measurement of creatinine in urine and plasma is performed by use of the clinical chemistry systems VITROS 950 (Ortho-Clinical Diagnostics Inc., Johnson & Johnson, NJ) and Roche Hitachi Modular (Roche Diagnostics, Mannheim, Germany).
The rats are subjected to one of the following i.v treatments: • Vehicle: 0.5 ml 150 mM NaCl • a-MSH: 200 μg o-melanocyte stimulating hormone/kg b.w. in 0.5 ml 150 mM NaCl. • Test compound: 200 μg test compound/kg b.w. in 0.5 ml 150 mM NaCl. Treatment is given 5 minutes prior to reperfusion of the kidney and subsequently 6 and 24 hours later. Statistics
Data are presented as mean±S.E. Within group comparisons are analysed with Student's paired t test. Between group comparisons are performed by one way analysis of variance followed by Fishers Least Significant Difference test. Differences are considered significant at the 0.05 level.

Substance: Ac-Lys-Lys-Lys-Lys-Lys-Lys-Ser-Tyr-Ser-Met-Glu-His-Phe-Arg-Trp-Gly-Lys-Pro-Val-NH2 (Ac-KKKKKKSYSMEHFRWGKPV-NH2) [a-MSH analogue #1]
- reduction of TNF-a accumulation during iv infusion of LPS [1]: reduce TNF-a accumulation
- inhibitory effect on plasma TNF-a compared to native a-MSH [1]: markedly more pronounced
- TNF-a concentration in plasma, % of the maximal response (LPS-Vehicle) [1]: 9±1%
- dose at which the maximal inhibitory effect on TNF-a is achieved [1]: 200 μg/kg body weight
- inhibitory effect on plasma TNF-a compared to native a-MSH ([1]; listed as SEQ ID NO: 1*): higher degree
- reduction of TNF-a accumulation during iv infusion of LPS ([1]; listed as SEQ ID NO: 1*): significantly inhibit
- effect on cisplatin induced fall in GFR [2]: prevents the cisplatin induced fall in GFR
- effect on cisplatin induced hypomagnesemia [2]: prevents cisplatin induced hypomagnesemia
- Plasma Mg [2]: 0.84 ± 0.04 mM

Substance: Ac-Lys-Lys-Lys-Lys-Lys-Lys-Ser-Tyr-Ser-Nle-Glu-His-(D-Phe)-Arg-Trp-Gly-Lys-Pro-Val-NH2 (KKKKKKSYSXEHFRWGKPV; N-acetyl, Nle, D-Phe, C-amide) [a-MSH analogue #2]
- reduction of TNF-a accumulation during iv infusion of LPS [1]: reduce TNF-a accumulation
- inhibitory effect on plasma TNF-a compared to native a-MSH [1]: markedly more pronounced
- TNF-a concentration in plasma, % of the maximal response (LPS-Vehicle) [1]: 9±1%
- dose at which the maximal inhibitory effect on TNF-a is achieved [1]: 200 μg/kg body weight
- inhibitory effect on plasma TNF-a compared to native a-MSH ([1]; listed as SEQ ID NO: 5*): higher degree
- reduction of TNF-a accumulation during iv infusion of LPS ([1]; listed as SEQ ID NO: 5*): significantly inhibit
- effect on cisplatin induced fall in GFR [2]: prevents cisplatin induced hypomagnesemia as well as the cisplatin induced fall in GFR
- effect on cisplatin induced hypomagnesemia [2]: prevents cisplatin induced hypomagnesemia

Substance: Ac-Lys-Lys-Lys-Lys-Lys-Lys-Ser-Tyr-Ser-Nle-Glu-His-D-Nal-Arg-Trp-Gly-Lys-Pro-Val-NH2 (KKKKKKSYSXEHXRWGKPV; not fully specified; N-acetyl, Nle, D-Nal, C-amide) [a-MSH analogue #3]
- reduction of TNF-a accumulation during iv infusion of LPS [1]: reduce TNF-a accumulation
- inhibitory effect on plasma TNF-a compared to native a-MSH [1]: markedly more pronounced
- TNF-a concentration in plasma, % of the maximal response (LPS-Vehicle) [1]: 11±3%
- dose at which the maximal inhibitory effect on TNF-a is achieved [1]: 200 μg/kg body weight
- inhibitory effect on plasma TNF-a compared to native a-MSH ([1]; listed as SEQ ID NO: 9*): higher degree
- reduction of TNF-a accumulation during iv infusion of LPS ([1]; listed as SEQ ID NO: 9*): significantly inhibit

Substance: Ser-Tyr-Ser-Met-Glu-His-Phe-Arg-Trp-Gly-Lys-Pro-Val [a-MSH, reference compound]
- reduction of TNF-a accumulation during iv infusion of LPS [1]: reduce TNF-a accumulation; also recorded: reduce TNF-α accumulation
- TNF-a concentration in plasma, % of the maximal response (LPS-Vehicle) [1]: 17±3% and 17±30%
- dose at which the maximal inhibitory effect on TNF-a is achieved [1]: 200 μg/kg body weight
- Plasma Mg [2]: 0.37 ± 0.04 mM
